From the NIST ThermoML archive (doi:10.1021/je800101v)

Assay: xn = mol fraction of the nth substance listed
Conditions: Ring tensiometer

CCCCCCCO [heptan-1-ol] + OCCO
surface tension liquid-gas [mN/m]
Conditions | 298.15 K | 303.15 K | 308.15 K | 313.15 K | 318.15 K
x1 = 0.0559 | 29.24 | 29.16 | 28.96 | 28.78 | 28.64
x1 = 0.1059 | 27.73 | 28.02 | 27.88 | 27.71 | 27.55
x1 = 0.1508 | 27.18 | 27.66 | 27.55 | 27.42 | 27.28
x1 = 0.1914 | 27.05 | 27.54 | 27.21 | 27.06 | 26.91
x1 = 0.2512 | 26.93 | 27.36 | 26.98 | 26.81 | 26.67
x1 = 0.3027 | 26.78 | 27.2 | 26.84 | 26.71 | 26.57
x1 = 0.3559 | 26.67 | 27.07 | 26.69 | 26.53 | 26.35
x1 = 0.4085 | 26.57 | 26.89 | 26.65 | 26.42 | 26.28
x1 = 0.4532 | 26.41 | 26.77 | 26.57 | 26.32 | 26.16
x1 = 0.4966 | 26.32 | 26.67 | 26.42 | 26.23 | 26.07
x1 = 0.5502 | 26.25 | 26.6 | 26.24 | 26.07 | 25.91
x1 = 0.5999 | 26.17 | 26.48 | 26.12 | 25.92 | 25.78
x1 = 0.6369 | 26 | 26.39 | 26.09 | 25.83 | 25.65
x1 = 0.6928 | 26.08 | 26.31 | 26.01 | 25.68 | 25.52
x1 = 0.7246 | 26.01 | 26.25 | 25.91 | 25.62 | 25.48
x1 = 0.7978 | 25.92 | 26.18 | 25.85 | 25.52 | 25.37
x1 = 0.8403 | 25.83 | 26.12 | 25.78 | 25.51 | 25.31
x1 = 0.8875 | 25.71 | 26.07 | 25.68 | 25.45 | 25.21
x1 = 0.9404 | 25.62 | 26.02 | 25.62 | 25.45 | 25.14
